Assay results reported in patent US10421778B2, “Isoform-selective lysine deacetylase inhibitors” (WASHINGTON UNIVERSITY, priority 2015, dated 2019).
Positions of bridges follow the written chain, without caps; N, C: chain ends. Non-standard residues stand in square brackets, D forms with d. Residues, ends and D or L forms follow the SMILES beside them. *: point of attachment. GABA = NCCCC(=O)O; NHOH = ON*

Assays:
Test in all cases: KDAC inhibition assay, Caliper EZ Reader II
Assay type in all cases: biochemical
recombinant human KDAC1 = target: T1, recombinant human KDAC1 (Homo sapiens, UniProt Q13547); settings: for KDAC Inhibition Activity KDAC1 (% inhibition): % inhibition at 30 μM
T1 construct: purchased BPS Bioscience

recombinant human KDAC3 = target: T2, recombinant human KDAC3 (Homo sapiens, UniProt O15379); settings: for KDAC Inhibition Activity KDAC3 (% inhibition): % inhibition at 30 μM
T2 construct: purchased BPS Bioscience

recombinant human KDAC6 = target: T3, recombinant human KDAC6 (Homo sapiens, UniProt Q9UBN7); settings: for KDAC Inhibition Activity KDAC6 (% inhibition): % inhibition at 30 μM
T3 construct: purchased BPS Bioscience
T3 sequence (Q9UBN7 1-1215): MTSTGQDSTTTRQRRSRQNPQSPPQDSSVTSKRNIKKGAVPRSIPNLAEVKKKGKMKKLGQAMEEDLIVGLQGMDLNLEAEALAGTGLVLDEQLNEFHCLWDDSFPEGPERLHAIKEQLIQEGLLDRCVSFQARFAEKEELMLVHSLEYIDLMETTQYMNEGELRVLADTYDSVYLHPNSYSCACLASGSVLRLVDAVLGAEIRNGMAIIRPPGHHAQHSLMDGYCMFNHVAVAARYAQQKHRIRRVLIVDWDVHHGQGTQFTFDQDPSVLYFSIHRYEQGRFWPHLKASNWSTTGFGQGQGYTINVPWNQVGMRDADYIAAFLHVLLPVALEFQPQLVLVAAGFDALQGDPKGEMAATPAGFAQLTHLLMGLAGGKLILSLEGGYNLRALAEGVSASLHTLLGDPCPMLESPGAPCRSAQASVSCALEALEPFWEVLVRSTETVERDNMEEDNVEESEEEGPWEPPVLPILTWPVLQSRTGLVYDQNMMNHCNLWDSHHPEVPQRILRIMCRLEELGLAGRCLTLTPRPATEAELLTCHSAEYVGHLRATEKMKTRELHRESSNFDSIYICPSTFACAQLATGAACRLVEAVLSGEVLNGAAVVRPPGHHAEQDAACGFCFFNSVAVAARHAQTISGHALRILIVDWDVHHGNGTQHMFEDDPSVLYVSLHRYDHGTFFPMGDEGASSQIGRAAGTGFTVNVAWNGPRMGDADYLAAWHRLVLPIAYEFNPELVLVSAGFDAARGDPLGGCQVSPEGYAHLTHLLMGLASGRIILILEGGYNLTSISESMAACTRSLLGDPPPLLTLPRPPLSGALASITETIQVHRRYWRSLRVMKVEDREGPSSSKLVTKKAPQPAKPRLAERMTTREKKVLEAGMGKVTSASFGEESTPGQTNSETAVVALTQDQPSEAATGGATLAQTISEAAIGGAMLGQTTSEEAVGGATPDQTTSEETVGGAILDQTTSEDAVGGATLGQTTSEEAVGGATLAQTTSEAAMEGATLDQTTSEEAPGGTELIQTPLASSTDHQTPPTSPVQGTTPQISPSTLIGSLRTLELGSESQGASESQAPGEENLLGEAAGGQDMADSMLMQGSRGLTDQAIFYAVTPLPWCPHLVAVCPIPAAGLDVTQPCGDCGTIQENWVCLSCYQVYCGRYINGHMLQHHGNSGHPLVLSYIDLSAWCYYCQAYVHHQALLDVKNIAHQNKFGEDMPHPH

recombinant human KDAC8 = target: T4, recombinant human KDAC8 (Homo sapiens, UniProt Q9BY41); settings: for KDAC Inhibition Activity KDAC8 (% inhibition): % inhibition at 30 μM
T4 construct: purchased BPS Bioscience
T4 sequence (Q9BY41 1-377): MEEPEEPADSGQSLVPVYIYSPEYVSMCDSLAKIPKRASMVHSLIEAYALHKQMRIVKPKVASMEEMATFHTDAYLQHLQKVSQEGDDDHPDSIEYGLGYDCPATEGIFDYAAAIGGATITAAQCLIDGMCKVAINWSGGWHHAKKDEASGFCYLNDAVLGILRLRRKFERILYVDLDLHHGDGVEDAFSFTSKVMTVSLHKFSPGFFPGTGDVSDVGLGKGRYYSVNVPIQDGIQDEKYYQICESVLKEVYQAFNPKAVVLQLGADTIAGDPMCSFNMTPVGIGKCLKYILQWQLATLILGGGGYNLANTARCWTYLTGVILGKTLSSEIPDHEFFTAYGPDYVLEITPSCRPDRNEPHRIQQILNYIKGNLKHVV

T2 sequence (O15379 whole entry): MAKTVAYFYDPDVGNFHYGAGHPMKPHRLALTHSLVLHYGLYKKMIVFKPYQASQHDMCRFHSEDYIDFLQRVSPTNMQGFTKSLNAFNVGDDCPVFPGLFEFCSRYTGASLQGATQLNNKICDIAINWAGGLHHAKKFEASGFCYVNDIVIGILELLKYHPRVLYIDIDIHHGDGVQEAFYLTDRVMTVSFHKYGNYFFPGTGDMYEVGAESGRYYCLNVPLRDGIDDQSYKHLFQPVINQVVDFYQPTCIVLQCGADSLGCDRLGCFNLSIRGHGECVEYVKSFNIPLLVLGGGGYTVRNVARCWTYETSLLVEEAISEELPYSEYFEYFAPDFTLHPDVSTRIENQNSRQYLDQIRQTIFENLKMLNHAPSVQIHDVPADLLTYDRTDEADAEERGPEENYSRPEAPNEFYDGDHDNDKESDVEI
T2 sequence (Q9Y618 395-489 partner limits assumed): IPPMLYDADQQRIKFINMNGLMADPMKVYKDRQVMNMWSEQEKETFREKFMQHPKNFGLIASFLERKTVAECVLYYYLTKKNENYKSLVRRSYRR
T1 sequence (Q13547 whole entry): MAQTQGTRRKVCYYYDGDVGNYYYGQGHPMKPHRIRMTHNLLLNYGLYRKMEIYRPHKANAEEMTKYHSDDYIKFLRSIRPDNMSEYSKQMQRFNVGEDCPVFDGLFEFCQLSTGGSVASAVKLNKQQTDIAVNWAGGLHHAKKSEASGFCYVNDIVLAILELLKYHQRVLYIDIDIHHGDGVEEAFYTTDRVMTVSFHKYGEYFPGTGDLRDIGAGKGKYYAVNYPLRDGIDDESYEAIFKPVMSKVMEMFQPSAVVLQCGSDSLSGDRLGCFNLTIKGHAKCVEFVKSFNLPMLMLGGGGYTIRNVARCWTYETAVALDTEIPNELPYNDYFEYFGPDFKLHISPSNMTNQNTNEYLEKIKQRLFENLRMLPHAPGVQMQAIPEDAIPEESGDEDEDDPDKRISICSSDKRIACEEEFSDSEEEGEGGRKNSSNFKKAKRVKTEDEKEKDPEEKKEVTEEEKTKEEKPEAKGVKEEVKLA

| Molecule | KDAC Inhibition Activity KDAC1 (% inhibition) (recombinant human KDAC1) | KDAC Inhibition Activity KDAC3 (% inhibition) (recombinant human KDAC3) | KDAC Inhibition Activity KDAC6 (% inhibition) (recombinant human KDAC6) | KDAC Inhibition Activity KDAC8 (% inhibition) (recombinant human KDAC8) | inhibition at 30 µM (recombinant human KDAC1) | inhibition at 30 µM (recombinant human KDAC3) | inhibition at 30 µM (recombinant human KDAC6) | inhibition at 30 µM (recombinant human KDAC8) |
| --- | --- | --- | --- | --- | --- | --- | --- | --- |
| Cyclo-Asp(^DPro-Pro-Val)-NHCH2CH2S—SCH2CH2NHP(O)(OPh) [Compound 11a] | 2.5% | 10% | Not active | 31% |  |  |  |  |
| Cyclo-^DAsp(Pro-^DPro-Val)-NHCH2CH2CH2S(═O)CH3 [Compound 20b] | 1% | 16% | 1% | 10% |  |  |  |  |
| Cyclo-Asp(^DPro-Pro-Val)-NHCH2CH2CH2SCH3 [Compound 7a] | Not active | Not active | 6% | 5% |  |  |  |  |
| Cyclo-Asp(^DPro-Pro-Val)-NHCH2CH2S—SCH2CH2NH2 [Compound 15a] | Not active | Not active | Not active | 1% |  |  |  |  |
| Cyclo-Asp(Pro-^DPro-Val)-NHCH2CH2SH [Compound 17a] | Not active | 2% | 15% | 5% |  |  |  |  |
| CC(C)[C@@H]1NC(=O)[C@@H]2CCCN2C(=O)[C@H]2CCCN2C(=O)C[C@@H](C(=O)NCCCC(=O)NO)NC1=O [Compound 14a, Cyclo-Asp(^DPro-Pro-Val)-NHCH2CH2CH2CONHOH] ([dP]PVD[GABA]-{NHOH}; lactam N-4) |  |  |  |  | 4.5% | 67% | 82% | 31% |
| Cyclo-Asp(Pro-^DPro-Val)-NHCH2CH2S—SCH2CH2NH2 [Compound 26a] | 15% | 5% | 10% | 10% |  |  |  |  |
| Cyclo-Asp(^DPro-Pro-Val)-NHCH2CH2CH2COOMe [Compound 12a] | 54.6% | 2% | Not active | Not active |  |  |  |  |
| Cyclo-Asp(^DPro-Pro-Val)-NHCH2CH2CH2S(═O)2CH3 [Compound 9a] | Not active | 4% | Not active | 17% |  |  |  |  |
| Cyclo-^DAsp(Pro-^DPro-Val)-NHCH2CH2CH2CONHOH [Compound 25b] | Not active | 13% | 6% | 31% |  |  |  |  |
| Cyclo-^DAsp(Pro-^DPro-Val)-NHCH2CH2CH2COOMe [Compound 23b] | 1% | Not active | 5% | 7% |  |  |  |  |
| Cyclo-Asp(Pro-^DPro-Val)-NHCH2CH2CH2S(═O)CH3 [Compound 20a] | Not active | Not active | Not active | 19% |  |  |  |  |

Further lines, with some results ahead:

| KDAC Inhibition Activity KDAC1 (% inhibition) (recombinant human KDAC1) | KDAC Inhibition Activity KDAC3 (% inhibition) (recombinant human KDAC3) | KDAC Inhibition Activity KDAC6 (% inhibition) (recombinant human KDAC6) | KDAC Inhibition Activity KDAC8 (% inhibition) (recombinant human KDAC8) | Molecule | inhibition at 30 µM (recombinant human KDAC1) | inhibition at 30 µM (recombinant human KDAC3) | inhibition at 30 µM (recombinant human KDAC6) | inhibition at 30 µM (recombinant human KDAC8) |
| --- | --- | --- | --- | --- | --- | --- | --- | --- |
| 5% | 7% | 7% | Not active | Cyclo-^DAsp(^DPro-Pro-Val)-NHCH2CH2S—SCH2CH2NH2 [Compound 15b] |  |  |  |  |
| Not active | 5% | Not active | 12% | Cyclo-^DAsp(Pro-^DPro-Val)-NHCH2CH2CH2OH [Compound 22b] |  |  |  |  |
| 8% | 17-31% 24% average | 15-36% 26% average | 6% | Cyclo-Asp(^DPro-Pro-Val)-NHCH2CH2CH2SH [Compound 6a] |  |  |  |  |
| Not active | Not active | 18% | Not active | Cyclo-^DAsp(Pro-^DPro-Val)-NHCH2CH2SH [Compound 17b] |  |  |  |  |
| 7% | 10% | 8% | 9% | Cyclo-^DAsp(^DPro-Pro-Val)-OBn [Compound 1b] |  |  |  |  |
| Not active | 1% | 1% | 26% | Cyclo-Asp(^DPro-Pro-Val)-NHCH2CH2CH2OH [Compound 10a] |  |  |  |  |
| Not active | 9% | Not active | 38% | Cyclo-^DAsp(Pro-^DPro-Val)-NHCH2CH2CH2COOH [Compound 24b] |  |  |  |  |
| Not active | 4% | 16% | 10% | Cyclo-^DAsp(^DPro-Pro-Val)-NHCH2CH2S—SCH2CH2NHP(O)(OPh) [Compound 11b] |  |  |  |  |
| Not active | 9% | Not active | 8% | Cyclo-^DAsp(^DPro-Pro-Val)-NHCH2CH2CH2SH [Compound 6b] |  |  |  |  |
| 3.5% | 5% | 3% | 38% | Cyclo-^DAsp(^DPro-Pro-Val)-NHCH2CH2CH2S(═O)CH3 [Compound 8b] |  |  |  |  |
| Not active | Not active | 23% | 6% | Cyclo-^DAsp(^DPro-Pro-Val)-NHCH2CH2SH [Compound 5b] |  |  |  |  |
| Not active | Not active | 13% | 4% | Cyclo-^DAsp(Pro-^DPro-Val)-NHCH2CH2S—SCH2CH2NH2 [Compound 26b] |  |  |  |  |
| Not active | 1% | 19% | 4% | Cyclo-Asp(Pro-^DPro-Val)-NHCH2CH2CH2SH [Compound 18a] |  |  |  |  |
| 4% | 3% | 1% | 22% | Cyclo-^DAsp(^DPro-Pro-Val)-NHCH2CH2CH2S(═O)2CH3 [Compound 9b] |  |  |  |  |
| 12.5% | 27% | 53% | 21% | Cyclo-^DAsp(^DPro-Pro-Val)-NHCH2CH2CH2CONHOH [Compound 14b] |  |  |  |  |
